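Results reflect a 48-hour exposure of cells in 96-well plates to compound at five concentrations. GI50 marks 50% less growth. Definition used: TGI = concentration required for complete inhibition of growth.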
Columns and labels:
Test in all cases: NCI anticancer screen, dose series, 48 h
DU-145 prostate = tested on: DU-145 prostate
SR leukemia = tested on: SR leukemia
786-0 renal = tested on: 786-0 renal
A498 renal = tested on: A498 renal
HCT-116 colon = tested on: HCT-116 colon
HCT-15 colon = tested on: HCT-15 colon
M14 melanoma = tested on: M14 melanoma
NCI-H460 lung = tested on: NCI-H460 lung
OVCAR-5 ovarian = tested on: OVCAR-5 ovarian
SK-OV-3 ovarian = tested on: SK-OV-3 ovarian
SW-620 colon = tested on: SW-620 colon
A549 NSCLC = tested on: A549 NSCLC
ACHN renal = tested on: ACHN renal
BT-549 breast = tested on: BT-549 breast
CAKI-1 renal = tested on: CAKI-1 renal
CCRF-CEM leukemia = tested on: CCRF-CEM leukemia
COLO 205 colon = tested on: COLO 205 colon
EKVX NSCLC = tested on: EKVX NSCLC
HCC-2998 colon = tested on: HCC-2998 colon
HL-60(TB) leukemia = tested on: HL-60(TB) leukemia
HOP-62 NSCLC = tested on: HOP-62 NSCLC
HOP-92 NSCLC = tested on: HOP-92 NSCLC
HS 578T breast = tested on: HS 578T breast
HT29 colon = tested on: HT29 colon
IGROV1 ovarian = tested on: IGROV1 ovarian
KM12 colon = tested on: KM12 colon
LOX IMVI melanoma = tested on: LOX IMVI melanoma
MALME-3M melanoma = tested on: MALME-3M melanoma
MCF7 breast = tested on: MCF7 breast
MDA-MB-231 breast = tested on: MDA-MB-231 breast
MDA-MB-435 = tested on: MDA-MB-435
MOLT-4 leukemia = tested on: MOLT-4 leukemia
NCI-H226 lung = tested on: NCI-H226 lung
NCI-H23 lung = tested on: NCI-H23 lung
NCI-H522 lung = tested on: NCI-H522 lung
NCI/ADR-RES ovarian = tested on: NCI/ADR-RES ovarian
OVCAR-3 ovarian = tested on: OVCAR-3 ovarian
OVCAR-4 ovarian = tested on: OVCAR-4 ovarian
OVCAR-8 ovarian = tested on: OVCAR-8 ovarian
PC-3 prostate = tested on: PC-3 prostate
RXF 393 renal = tested on: RXF 393 renal
SF-268 CNS = tested on: SF-268 CNS
SF-295 CNS = tested on: SF-295 CNS
SF-539 CNS = tested on: SF-539 CNS
SK-MEL-2 melanoma = tested on: SK-MEL-2 melanoma
SK-MEL-28 melanoma = tested on: SK-MEL-28 melanoma
SK-MEL-5 melanoma = tested on: SK-MEL-5 melanoma
SN12C renal = tested on: SN12C renal
SNB-19 CNS = tested on: SNB-19 CNS
SNB-75 CNS = tested on: SNB-75 CNS
TK-10 renal = tested on: TK-10 renal
U251 CNS = tested on: U251 CNS
UACC-257 melanoma = tested on: UACC-257 melanoma
UACC-62 melanoma = tested on: UACC-62 melanoma
UO-31 renal = tested on: UO-31 renal

`N=C(N)c1ccc(-c2ccc(-c3ccc(F)cc3)s2)cc1` was tested. Which GI50 (DU-145 prostate) did it give?
The GI50 was 1.63 µM.

And the TGI (DU-145 prostate)?
Its TGI is 2.98 µM.

What about the GI50 (SR leukemia) of the same compound?
The GI50 was 0.307 µM.

And the TGI (SR leukemia)?
The TGI was over 100 µM.

Which results are given for `N=C(N)c1ccc(-c2ccc(-c3ccccc3)s2)cc1F`?
GI50 (DU-145 prostate): 1.13 µM; TGI (DU-145 prostate): 2.38 µM

What does the source list for `CN(C)[C@@H]1C(=O)C(C(N)=O)=C(O)[C@@]2(O)C(=O)C3=C(O)c4c(O)cc(CN5CCc6ccccc6C5)c(Cl)c4C[C@H]3C[C@@H]12`?
GI50 (786-0 renal): 1.76 µM; TGI (786-0 renal): 3.3 µM; GI50 (A498 renal): 1.76 µM; TGI (A498 renal): 3.29 µM; GI50 (DU-145 prostate): 1.64 µM; TGI (DU-145 prostate): 3.04 µM; GI50 (HCT-116 colon): 1.6 µM; TGI (HCT-116 colon): 2.97 µM; GI50 (HCT-15 colon): 0.0531 µM; TGI (HCT-15 colon): 2.36 µM; GI50 (M14 melanoma): 1.61 µM; TGI (M14 melanoma): 3.03 µM; GI50 (NCI-H460 lung): 1.79 µM; TGI (NCI-H460 lung): 3.4 µM; GI50 (OVCAR-5 ovarian): 1.62 µM; TGI (OVCAR-5 ovarian): 3.02 µM; GI50 (SK-OV-3 ovarian): 1.73 µM; TGI (SK-OV-3 ovarian): 3.18 µM; GI50 (SW-620 colon): 1.92 µM; TGI (SW-620 colon): 3.6 µM

With `CCOC(=O)c1cc2c(OC(C)=O)ccc(OC(C)=O)c2s1` as the compound, how does the TGI (786-0 renal) read?
Its TGI is 6.24 µM.

And the TGI (A498 renal)?
The TGI was 12.5 µM.

What about the TGI (A549 NSCLC) of the same compound?
Its TGI is 28.6 µM.

And the TGI (ACHN renal)?
The TGI was 2.98 µM.

And the TGI (BT-549 breast)?
The TGI was 4.97 µM.

And the TGI (CAKI-1 renal)?
Its TGI is 8.46 µM.

And the TGI (CCRF-CEM leukemia)?
The TGI was 5.29 µM.

And the TGI (COLO 205 colon)?
The TGI was 4.81 µM.

What about the TGI (DU-145 prostate) of the same compound?
The TGI was 17.1 µM.

And the TGI (EKVX NSCLC)?
Its TGI is 7.73 µM.

And the TGI (HCC-2998 colon)?
Its TGI is 22.2 µM.

And the TGI (HCT-116 colon)?
The TGI was 9 µM.

What about the TGI (HCT-15 colon) of the same compound?
The TGI was 3.34 µM.

What about the TGI (HL-60(TB) leukemia) of the same compound?
The TGI was 2.97 µM.

What about the TGI (HOP-62 NSCLC) of the same compound?
The TGI was 23.9 µM.

What about the TGI (HOP-92 NSCLC) of the same compound?
Its TGI is 3.16 µM.

And the TGI (HS 578T breast)?
Its TGI is 5.51 µM.

What about the TGI (HT29 colon) of the same compound?
Its TGI is 10.7 µM.

What about the TGI (IGROV1 ovarian) of the same compound?
Its TGI is 6.52 µM.

And the TGI (KM12 colon)?
Its TGI is 17.6 µM.

And the TGI (LOX IMVI melanoma)?
The TGI was 3.09 µM.

What about the TGI (M14 melanoma) of the same compound?
Its TGI is 3.26 µM.

And the TGI (MALME-3M melanoma)?
Its TGI is 3.6 µM.

What about the TGI (MCF7 breast) of the same compound?
Its TGI is 11.8 µM.

And the TGI (MDA-MB-231 breast)?
Its TGI is 4.64 µM.

And the TGI (MDA-MB-435)?
Its TGI is 7.38 µM.

What about the TGI (MOLT-4 leukemia) of the same compound?
Its TGI is over 24 µM.

And the TGI (NCI-H226 lung)?
The TGI was 55 µM.

What about the TGI (NCI-H23 lung) of the same compound?
Its TGI is 5.51 µM.

What about the TGI (NCI-H460 lung) of the same compound?
The TGI was 22.2 µM.

What about the TGI (NCI-H522 lung) of the same compound?
Its TGI is 1.07 µM.

What about the TGI (NCI/ADR-RES ovarian) of the same compound?
The TGI was 5.79 µM.

What about the TGI (OVCAR-3 ovarian) of the same compound?
Its TGI is 3.15 µM.

What about the TGI (OVCAR-4 ovarian) of the same compound?
Its TGI is 31.3 µM.

What about the TGI (OVCAR-5 ovarian) of the same compound?
The TGI was 18.9 µM.

And the TGI (OVCAR-8 ovarian)?
The TGI was 3.51 µM.

What about the TGI (PC-3 prostate) of the same compound?
Its TGI is 5.07 µM.

What about the TGI (RXF 393 renal) of the same compound?
Its TGI is 3.42 µM.

What about the TGI (SF-268 CNS) of the same compound?
The TGI was 3.85 µM.

And the TGI (SF-295 CNS)?
The TGI was 18.3 µM.

And the TGI (SF-539 CNS)?
The TGI was 3.36 µM.

And the TGI (SK-MEL-2 melanoma)?
The TGI was 7.72 µM.

And the TGI (SK-MEL-28 melanoma)?
Its TGI is 5.45 µM.

And the TGI (SK-MEL-5 melanoma)?
The TGI was 6.69 µM.

And the TGI (SK-OV-3 ovarian)?
Its TGI is 22.7 µM.

And the TGI (SN12C renal)?
The TGI was 5.11 µM.

And the TGI (SNB-19 CNS)?
Its TGI is 19.9 µM.

And the TGI (SNB-75 CNS)?
Its TGI is 5.62 µM.

What about the TGI (SR leukemia) of the same compound?
Its TGI is over 22.7 µM.

And the TGI (TK-10 renal)?
Its TGI is 17.5 µM.

What about the TGI (U251 CNS) of the same compound?
Its TGI is 10.4 µM.

And the TGI (UACC-257 melanoma)?
The TGI was 4.97 µM.

What about the TGI (UACC-62 melanoma) of the same compound?
Its TGI is 4.08 µM.

And the TGI (UO-31 renal)?
The TGI was 2.76 µM.

Reference: PubChem BioAssay (NCI)
